From patent US20150366966A1, “Stable Aqueous Solution” (SENJU PHARMACEUTICAL CO., LTD., priority 2013, published 2015)

Columns and labels:
[1] = Solubility of compound A in water; format: physicochemical
Protocol: This has already been shown by the fact that the heat stability of compound A in an aqueous solution decreases extremely when polysorbate 80 conventionally widely used as a solubilizer of poorly soluble drugs is added (see below-mentioned Experimental Example 2, Comparative Example 1).

[2] = Light stability of compound A in aqueous solution (residual ratio by HPLC after white light irradiation); format: physicochemical
Protocol: An aqueous solution of compound A was prepared according to the following formulation. In 0.1% phosphate buffer was added a predetermined amount of tyloxapol, octoxynol, polysorbate 80, HCO-60 or MYS-40, and the mixture was adjusted to […] with sodium hydroxide. Compound A in the predetermined amount in the following formulation was dissolved in said solution, and the mixture was sterilized by filtration with a 0.22 μm membrane filter, and filled in a 5 mL colorless glass ampoule. Using a photostability testing device (model: LT-120A-WCD, manufactured by Nagano Science Co., Ltd.), the ampoule was exposed to white light (total illumination 12000 lux·h and 24000 lux·h), and the content of compound A in the glass ampoule was measured.
Compound A after storage was quantified by high performance liquid chromatography using the absolute calibration curve method (the Japanese Pharmacopoeia). […]
An aqueous solution of compound A was prepared according to the following formulation. […] The glass ampoule was placed, under light irradiation conditions and storage conditions at 80° C. for 1 week, and the content of each compound A was measured. Compound A was quantified in the same manner as in Experimental Example 1 and Experimental Example 2.

PPARδ = target: T1, PPARδ (Homo sapiens, UniProt Q03181); conditions: reported in WO 03/033493 and WO 2008/143254; cited from earlier work
T1 sequence (Q03181 1-441): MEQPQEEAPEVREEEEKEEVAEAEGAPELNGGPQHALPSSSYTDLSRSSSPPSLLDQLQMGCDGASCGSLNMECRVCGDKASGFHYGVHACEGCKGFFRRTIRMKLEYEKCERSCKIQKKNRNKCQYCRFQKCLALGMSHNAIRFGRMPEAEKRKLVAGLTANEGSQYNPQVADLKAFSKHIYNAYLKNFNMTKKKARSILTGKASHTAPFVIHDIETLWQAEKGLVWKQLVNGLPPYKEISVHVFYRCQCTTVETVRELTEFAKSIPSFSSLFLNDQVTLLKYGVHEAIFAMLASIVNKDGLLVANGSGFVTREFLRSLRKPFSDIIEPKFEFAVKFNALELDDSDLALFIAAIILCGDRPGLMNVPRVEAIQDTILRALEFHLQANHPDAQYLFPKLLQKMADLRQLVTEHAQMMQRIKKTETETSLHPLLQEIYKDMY

Cc1cc2c(CCc3sc(-c4ccc(C(F)(F)F)cc4)nc3C(C)C)noc2cc1OCC(=O)O [Compound A, (3-{2-[4-isopropyl-2-(4-trifluoromethyl)phenyl-5-thiazolyl]ethyl}-5-methyl-1,2-benzisoxazol-6-yl)oxyacetic acid]
solubility in water (in words) [1]: practically insoluble in water
stability to light in aqueous solution (in words) [2]: extremely unstable to light in an aqueous solution
PPARδ agonist action (in words) (PPARδ): PPARδ agonist
